Experiments:
[1] = system: PTEN KO orthotopic tumors; assay: FTY720 blockade of T cell recruitment in PTEN KO tumor-bearing mice; type: in vivo
Procedure: Survival endpoint was defined by the appearance of hemorrhagic abdominal ascites and/or decreased grooming, ambulation, or piloerection. Volume of all tumor experiments was calculated using caliper measurements at π/6×L×W×H, where L is length of longest axis of the tumor, and W and H are the perpendicular width and height, respectively.
For all in vivo experiments, CP1 was administered intra-urethrally on day 8 post-tumor injection. […]
The Ability of CP1 to Potentiate PD-1 Blockade is Partially Dependent on Increased TIL Recruitment To determine if CP1's ability to recruit lymphocytes into the tumor is necessary for its proven synergy with PD-1 blockade, fingolimod (FTY720), a sphingosine-1 phosphate mimetic that blocks egress of T cells from the lymph nodes into peripheral tissues, was administered. PTEN KO orthotopic tumor-bearing mice were treated with CP1 and anti-PD-1, with the addition of FTY720 administration beginning immediately before CP1 administration, to specifically block CP1-induced T cell infiltration into the tumor without inhibiting the quantity or function of the baseline TILs present in these tumors.

[2] = system: castration-resistant prostate cancer (CRPC); conditions: monotherapy, patients with CRPC; cited from earlier work
Myc-CaP cells = type: cell-based, murine; conditions: 1 μM mitoxantrone, live or heat killed CP1 MOI 10, 24 or 72 hours
Procedure: (a) LDH level, as a measure of cell death, from CP1 and Myc-CaP co-culture, performed in triplicates. (b-i) Myc-CaP cell were co-cultured with Mx, CP1(MOI 1), or MG1655 (MOI 1) (b, d, g) in normal media or (c, e, f, h, i) with gentamicin (+ G) added after 2 hours. (b, c) ICD was measured via HMGB1 (ELISA, 72 hours), ATP (luminescence assay, 72 hours), and calreticulin (flow cytometry, 24 or 72 hours), performed in biological triplicates, technical duplicates. (d-f) Caspase 3/7 activity (luminescence assay) was measured at (d, e) 6 hours or (f) 24 hours, (d) normalized to cell count (MTT assay), performed in sextuplicates. (g, h) Early stage apoptosis (Annexin V^+PI^-) and late stage apoptosis (Annexin V+PI+) were determined by flow cytometry after 24 hours, performed in triplicates. (i) Western blot analysis of phosphorylated and total MLKL, RIP1, RIP3, full length and cleaved PARP, and β-actin after 24 hours, performed in triplicates.
For indicated in vitro assays, CP1 was heat killed at 70° C. for 45 minutes. […] Additionally, supernatant was assessed for lactate dehydrogenase (LDH) levels as a measure of cell death (CytoTox 96 Non-Radioactive Cytotoxicity Assay, Promega). […] Cells counts were taken at the times of supernatant collection, which were frozen at −80° C. until use for quantifying secreted ATP (Bioluminescent Assay Kit, Sigma) and HMGB1 (ELISA, Tecan Trading).

| Molecule | overall survival (OS) [2] | also measured |
| --- | --- | --- |
| CCCCCCCCc1ccc(CCC(N)(CO)CO)cc1 [FTY720, Fingolimod] |  | tumor volume, mean [1]: 1394 mm^3 |
| ipilimumab | no improvement in overall survival (OS) |  |
| O=C1c2c(O)ccc(O)c2C(=O)c2c(NCCNCCO)ccc(NCCNCCO)c21 [mitoxantrone] |  | ICD markers: secreted HMGB1, secreted ATP, cell surface calreticulin (Myc-CaP cells): elevated |
| nivolumab | no improvement in overall survival (OS) |  |
